# Where “and” joins values, the source holds several entries; their conditions need not be identical. Equal values may be shown once.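 Cultured in 96-well plates, cells were exposed to test compound for 48 hours across five concentrations. GI50: concentration for 50% inhibition of growth. TGI marks complete inhibition of growth.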
# Columns and labels:
# Test in all cases: NCI tumour cell line growth inhibition, 48 h
# A498 renal = tested on: A498 renal
# A549 NSCLC = tested on: A549 NSCLC
# ACHN renal = tested on: ACHN renal
# COLO 205 colon = tested on: COLO 205 colon
# DLD-1 colon = tested on: DLD-1 colon
# DMS 114 small cell lung = tested on: DMS 114 small cell lung
# DMS 273 small cell lung = tested on: DMS 273 small cell lung
# EKVX NSCLC = tested on: EKVX NSCLC
# HCC-2998 colon = tested on: HCC-2998 colon
# HCT-116 colon = tested on: HCT-116 colon
# HCT-15 colon = tested on: HCT-15 colon
# HL-60(TB) leukemia = tested on: HL-60(TB) leukemia
# HOP-18 NSCLC = tested on: HOP-18 NSCLC
# HOP-62 NSCLC = tested on: HOP-62 NSCLC
# HOP-92 NSCLC = tested on: HOP-92 NSCLC
# HT29 colon = tested on: HT29 colon
# IGROV1 ovarian = tested on: IGROV1 ovarian
# K-562 leukemia = tested on: K-562 leukemia
# KM12 colon = tested on: KM12 colon
# KM20L2 colon = tested on: KM20L2 colon
# LOX IMVI melanoma = tested on: LOX IMVI melanoma
# M14 melanoma = tested on: M14 melanoma
# MALME-3M melanoma = tested on: MALME-3M melanoma
# MOLT-4 leukemia = tested on: MOLT-4 leukemia
# NCI-H226 lung = tested on: NCI-H226 lung
# NCI-H23 lung = tested on: NCI-H23 lung
# NCI-H460 lung = tested on: NCI-H460 lung
# NCI-H522 lung = tested on: NCI-H522 lung
# OVCAR-3 ovarian = tested on: OVCAR-3 ovarian
# OVCAR-4 ovarian = tested on: OVCAR-4 ovarian
# OVCAR-5 ovarian = tested on: OVCAR-5 ovarian
# OVCAR-8 ovarian = tested on: OVCAR-8 ovarian
# RPMI-8226 leukemia = tested on: RPMI-8226 leukemia
# RXF 393 renal = tested on: RXF 393 renal
# SF-268 CNS = tested on: SF-268 CNS
# SF-295 CNS = tested on: SF-295 CNS
# SF-539 CNS = tested on: SF-539 CNS
# SK-MEL-2 melanoma = tested on: SK-MEL-2 melanoma
# SK-MEL-28 melanoma = tested on: SK-MEL-28 melanoma
# SK-MEL-5 melanoma = tested on: SK-MEL-5 melanoma
# SK-OV-3 ovarian = tested on: SK-OV-3 ovarian
# SN12C renal = tested on: SN12C renal
# SNB-19 CNS = tested on: SNB-19 CNS
# SNB-75 CNS = tested on: SNB-75 CNS
# SR leukemia = tested on: SR leukemia
# SW-620 colon = tested on: SW-620 colon
# TK-10 renal = tested on: TK-10 renal
# U251 CNS = tested on: U251 CNS
# UACC-257 melanoma = tested on: UACC-257 melanoma
# UACC-62 melanoma = tested on: UACC-62 melanoma
# UO-31 renal = tested on: UO-31 renal
# XF 498 CNS = tested on: XF 498 CNS
# 786-0 renal = tested on: 786-0 renal
# CAKI-1 renal = tested on: CAKI-1 renal
# CCRF-CEM leukemia = tested on: CCRF-CEM leukemia
# LXFL 529 NSCLC = tested on: LXFL 529 NSCLC
# M19-MEL melanoma = tested on: M19-MEL melanoma
# SNB-78 CNS = tested on: SNB-78 CNS
smiles,measurement,setting,value
C#CCCCCC#CC1CCCC1C1=CC(=O)c2ccccc21 (stereo not given),TGI,A498 renal,28.3 µM
same,TGI,A549 NSCLC,30 µM
same,TGI,ACHN renal,19.9 µM
same,TGI,COLO 205 colon,28.6 µM
same,TGI,DLD-1 colon,24.3 µM
same,TGI,DMS 114 small cell lung,6.97 µM
same,TGI,DMS 273 small cell lung,11.9 µM
same,TGI,EKVX NSCLC,28 µM
same,TGI,HCC-2998 colon,25.2 µM
same,TGI,HCT-116 colon,2.91 µM
same,TGI,HCT-15 colon,19.9 µM
same,TGI,HL-60(TB) leukemia,3.93 µM
same,TGI,HOP-18 NSCLC,25 µM
same,TGI,HOP-62 NSCLC,20.3 µM
same,TGI,HOP-92 NSCLC,16.1 µM
same,TGI,HT29 colon,15.9 µM
same,TGI,IGROV1 ovarian,19.4 µM
same,TGI,K-562 leukemia,8.14 µM
same,TGI,KM12 colon,19.6 µM
same,TGI,KM20L2 colon,22 µM
same,TGI,LOX IMVI melanoma,13.9 µM
same,TGI,M14 melanoma,17 µM
same,TGI,MALME-3M melanoma,20.1 µM
same,TGI,MOLT-4 leukemia,> 100 µM
same,TGI,NCI-H226 lung,29.8 µM
same,TGI,NCI-H23 lung,24.5 µM
same,TGI,NCI-H460 lung,32.5 µM
same,TGI,NCI-H522 lung,22 µM
same,TGI,OVCAR-3 ovarian,17.8 µM
same,TGI,OVCAR-4 ovarian,23.9 µM
same,TGI,OVCAR-5 ovarian,23.7 µM
same,TGI,OVCAR-8 ovarian,3.52 µM
same,TGI,RPMI-8226 leukemia,6.46 µM
same,TGI,RXF 393 renal,18.4 µM
same,TGI,SF-268 CNS,11.8 µM
same,TGI,SF-295 CNS,16.8 µM
same,TGI,SF-539 CNS,21.1 µM
same,TGI,SK-MEL-2 melanoma,24.8 µM
same,TGI,SK-MEL-28 melanoma,18.5 µM
same,TGI,SK-MEL-5 melanoma,20.2 µM
same,TGI,SK-OV-3 ovarian,28.7 µM
same,TGI,SN12C renal,19.4 µM
same,TGI,SNB-19 CNS,28.8 µM
same,TGI,SNB-75 CNS,17.7 µM
same,TGI,SR leukemia,> 100 µM
same,TGI,SW-620 colon,6.39 µM
same,TGI,TK-10 renal,34.5 µM
same,TGI,U251 CNS,16.9 µM
same,TGI,UACC-257 melanoma,25.2 µM
same,TGI,UACC-62 melanoma,6.44 µM
same,TGI,UO-31 renal,21.3 µM
same,TGI,XF 498 CNS,20.8 µM
NCC(=O)OCN1C(=O)C2C3C=CC(C2C1=O)C1C2C(=O)N(COC(=O)CN)C(=O)C2C31 (stereo not given),TGI,786-0 renal,40.7 µM and 36.8 µM
same,TGI,A498 renal,> 100 µM
same,TGI,A549 NSCLC,63.7 µM and 60.6 µM
same,TGI,ACHN renal,67.6 µM and 62.1 µM
same,TGI,CAKI-1 renal,> 100 µM
same,TGI,CCRF-CEM leukemia,52.6 µM and 49.8 µM
same,TGI,COLO 205 colon,36.4 µM and 32.2 µM
same,TGI,DLD-1 colon,54.2 µM and 60.8 µM
same,TGI,DMS 114 small cell lung,39 µM and 36.8 µM
same,TGI,DMS 273 small cell lung,33.6 µM and 37.3 µM
same,TGI,EKVX NSCLC,> 100 µM
same,GI50,HCC-2998 colon,31.2 µM and 69.9 µM
same,TGI,HCC-2998 colon,94.8 µM and > 100 µM
same,TGI,HCT-116 colon,33.6 µM and 30.7 µM
same,TGI,HCT-15 colon,36.9 µM and 34.8 µM
same,TGI,HL-60(TB) leukemia,28.5 µM and 37.4 µM
same,TGI,HOP-18 NSCLC,54.4 µM and 73.7 µM
same,TGI,HOP-62 NSCLC,> 100 µM
same,TGI,HOP-92 NSCLC,> 100 µM
same,TGI,HT29 colon,> 100 µM
same,TGI,IGROV1 ovarian,> 100 µM
same,TGI,K-562 leukemia,60.9 µM and > 100 µM
same,TGI,KM12 colon,48.4 µM and 42.2 µM
same,TGI,KM20L2 colon,52.9 µM and 81.9 µM
same,TGI,LOX IMVI melanoma,37.9 µM
same,TGI,LXFL 529 NSCLC,42.1 µM and > 100 µM
same,TGI,M14 melanoma,35.3 µM and 33.9 µM
same,TGI,M19-MEL melanoma,45.1 µM and 37.9 µM
same,TGI,MOLT-4 leukemia,69.8 µM and 42.2 µM
same,TGI,NCI-H226 lung,> 100 µM
same,TGI,NCI-H23 lung,49.1 µM and 84.7 µM
same,TGI,NCI-H460 lung,35.8 µM and 34.3 µM
same,TGI,NCI-H522 lung,25.9 µM
same,TGI,OVCAR-3 ovarian,82.1 µM and 93.4 µM
same,TGI,OVCAR-4 ovarian,39.1 µM and 55.4 µM
same,GI50,OVCAR-5 ovarian,42.1 µM and 90 µM
same,TGI,OVCAR-5 ovarian,> 100 µM
same,TGI,OVCAR-8 ovarian,47.4 µM and 39 µM
same,TGI,RPMI-8226 leukemia,72.5 µM and 59.7 µM
same,TGI,RXF 393 renal,37.9 µM and 42.3 µM
same,TGI,SF-268 CNS,41.1 µM and 48.6 µM
same,TGI,SF-295 CNS,> 100 µM
same,TGI,SF-539 CNS,68.9 µM and 38.2 µM
same,TGI,SK-MEL-2 melanoma,38.6 µM and 41.2 µM
same,TGI,SK-MEL-28 melanoma,35.3 µM and 40.8 µM
same,TGI,SK-MEL-5 melanoma,51.7 µM and 34 µM
same,TGI,SK-OV-3 ovarian,> 100 µM
same,TGI,SN12C renal,48.4 µM and 50.7 µM
same,TGI,SNB-19 CNS,> 100 µM
same,TGI,SNB-75 CNS,62.6 µM and > 100 µM
same,TGI,SNB-78 CNS,> 100 µM
same,TGI,SW-620 colon,44.7 µM and 54.2 µM
same,TGI,TK-10 renal,> 100 µM
same,TGI,U251 CNS,45 µM and 38.7 µM
same,TGI,UACC-257 melanoma,> 100 µM and 77.6 µM
same,TGI,UACC-62 melanoma,50.5 µM and 56 µM
same,TGI,UO-31 renal,97.7 µM and > 100 µM
same,TGI,XF 498 CNS,54.7 µM and 64.1 µM
